Assays:
Type in all cases: cell-based
[1] = test system: BJ normal skin fibroblast; experiment: MTT cytotoxicity test, BJ normal fibroblasts; conditions: Homo sapiens, 48 h treatment
Experimental: The studies were conducted on two breast cancer cell lines—MCF-7 (ER+PR+/HER2-negative) and MDA-MB-231 (ER/PR/HER2-negative) and human normal fibroblast cell line BJ. The cell lines were obtained from American Type Culture Collection (ATCC, Manassas, VA, USA) and were cultured at 37 °C in the presence of 5% CO2 in the atmosphere. The culture media (Eagle’s Minimum Essential Medium for MCF-7 and BJ, Leibovitz’s L-15 Medium for MDA-MB-231, Corning, NY, USA), was supplemented with 10% fetal bovine serum. The cell’s morphology was examined under a Nikon Eclipse Ti inverted phase contrast microscope (Nikon, Tokyo, Japan). The authenticity of tested cell lines was verified by short tandem repeat (STR) genotyping in the Department of Forensic Medicine (Medical University of Lublin, Lublin, Poland).
Cell viability based on metabolic activity was evaluated with the MTT colorimetric test based on the ability of viable cells to cause the transformation of tetrazolium salts MTT (3-[4,5-dimethylthiazol-2-yl]-2,5)diphenyltetrazolium bromide) into purple formazan, by cellular dehydrogenases. The cells were seeded into 96-well plates at a concentration of 2 × 10^5 cells/mL. Once 70–80% confluency was reached, tested compounds were added: ADS10310 and ADS1017 in concentrations ranging from 1 to 250 µM or DMSO as the vehicle in control cultures for the next 48 h (max. DMSO concentration <0.5%). Doxorubicin was used for comparison as the standard chemotherapeutic agent used in breast cancer treatment. After 48 h of incubation cell cultures were supplemented with 20 µL of 5 mg/mL MTT (Thermofisher, Waltham, MA, USA) stock in PBS (Corning, NY, USA), and the incubation was continued for 4 h at 37 °C. […] The solution absorbency was measured at 570 nm, using a PowerWave™ xs microplate spectrophotometer (BioTek Instruments, Winooski, VT, USA). […] IC50 values were determined using the AAT Bioquest IC50 calculator (AAT Bioquest, Inc. Quest Graph™ EC50 Calculator. https://www.aatbio.com/tools/ec50-calculator) (accessed on 6 September 2022).

[2] = test system: MDA-MB-231 breast cancer cells; experiment: cells; conditions: Homo sapiens, MDA-MB-231; 48 h treatment; read-out: MTT IC50 MDA-MB-231
Experimental: (§1) The cell lines were obtained from American Type Culture Collection (ATCC, Manassas, VA, USA) and were cultured at 37 °C in the presence of 5% CO2 in the atmosphere. […] The cell’s morphology was examined under a Nikon Eclipse Ti inverted phase contrast microscope (Nikon, Tokyo, Japan). The authenticity of tested cell lines was verified by short tandem repeat (STR) genotyping in the Department of Forensic Medicine (Medical University of Lublin, Lublin, Poland).
(§2) Cell viability based on metabolic activity was evaluated with the MTT colorimetric test based on the ability of viable cells to cause the transformation of tetrazolium salts MTT (3-[4,5-dimethylthiazol-2-yl]-2,5)diphenyltetrazolium bromide) into purple formazan, by cellular dehydrogenases. The cells were seeded into 96-well plates at a concentration of 2 × 10^5 cells/mL. […] Doxorubicin was used for comparison as the standard chemotherapeutic agent used in breast cancer treatment. After 48 h of incubation cell cultures were supplemented with 20 µL of 5 mg/mL MTT (Thermofisher, Waltham, MA, USA) stock in PBS (Corning, NY, USA), and the incubation was continued for 4 h at 37 °C. Next, the medium with MTT was removed, and obtained crystals were dissolved in 200 µL of DMSO (dimethyl sulfoxide, Avantor, Gliwice, Poland). The solution absorbency was measured at 570 nm, using a PowerWave™ xs microplate spectrophotometer (BioTek Instruments, Winooski, VT, USA). The experiment was performed three times with three replicates for each concentration of tested compounds.

[3] = test system: MCF-7 breast cancer cells; experiment: cells; conditions: Homo sapiens, MCF7; 48 h treatment; read-out: MTT IC50 MCF-7
Experimental: as §1, §2

SMILES: COc1cccc2c1C(=O)c1c(O)c3c(c(O)c1C2=O)C[C@@](O)(C(=O)CO)C[C@@H]3O[C@H]1C[C@H](N)[C@H](O)[C@H](C)O1 [Doxorubicin, reference compound]
- IC50 [1]: 4870 nM
- IC50 [2]: 1850 nM
- IC50 [3]: 2120 nM
